Test results as given in patent US7304091B2, “Statin-like compounds” (Myco TeO A/S, priority 2001, dated 2007).

Test system: male White rabbits
Assay: Test of cholesterol-lowering effect in rabbits fed 1% cholesterol diet
Assay type: in vivo
Method: The cholesterol-lowering effect of Statan A was compared against a control in male White rabbits (purchased from Hvidesten, DK). The rabbits were housed in individual stainless steel cages with free access to water. The rabbits were divided into groups with similar baseline values of plasma cholesterol, which groups received: • 1) 5 mg/day PD498 (n=2)(Statan A), • 2) control group (n=4).
The rabbits were treated for 3 days. All animals were fed daily with 100 g of a standard rabbit diet (Altromin, Lage, Germany) containing 1% cholesterol. All test drugs were added to the diet. Remaining food were weighed.
Blood samples for cholesterol determination were drawn at baseline and at the three following days. Blood samples were taken from the marginal ear vein and the cholesterol determination was done the same day by enzymatic […] methods, using a commercially available kit (CHOD-PAP, Roche), on a COBAS MIRA auto-analyzer (Roche, Basle, CH).
Ten kg 1% cholesterol chow: 100 g cholesterol is dissolved in 500 g corn oil by heating to 40° C. […]

| Structure (SMILES) | cholesterol-lowering effect (rabbits, same method as Example 13) | Total plasma cholesterol levels compared to the control group (male White rabbits, 5 mg/day in 1% cholesterol diet, treated for 3 days, blood at baseline and three following days, FIG. 2) |
| --- | --- | --- |
| Cc1ccc2ccccc2c1CC[C@@H]1C[C@@H](O)CC(=O)O1 [solistatin] | had cholesterol-lowering effect |  |
| Cc1ccc2cccc(O)c2c1CCC1CC(O)CC(=O)O1 (centres unmarked) [Statan A] |  | consistently lower |
